Test results taken from article PMC7311426, “An amphipathic peptide with antibiotic activity against multidrug-resistant Gram-negative bacteria” (Nature Communications, 2020).
Values after ≈ are worked out from the molar mass of the structure shown. Residues, ends and D or L forms follow the SMILES beside them.

Legend:
[1] = test system: HepG2 liver hepatocellular carcinoma cells; assay: in vitro
Experimental: (§1) HEK-293 human embryonic kidney cells (ATCC CRL-1573), HepG2 liver hepatocellular carcinoma cells (ATCC HB-8065), and HK-2 human kidney proximal tubule cells (ATCC CRL-2190) cell lines were purchased from ATCC. Cytotoxicity of arenicin-3 variants was determined using the Alamar Blue (resazurin; Sigma-Aldrich, Cat # R7017), with 1% FBS for HK-2 and 10% FBS for HEK-293, and HepG2[40]. Cells were seeded as 2000 cells per well in black wall clear bottom 384-well plates (Corning®, Costar®, Cat # 3712). The cells were incubated for 24 h at 37 °C, 5% CO2. Then peptides were added into each cell containing well. After 24 h incubation, 5 μM resazurin were added per well and incubated at 37 °C for 2 h. Then the fluorescence intensity (FI) was read using a Polarstar® Omega plate reader with excitation/emission 560/590 and CC50 values were determined using Prism 8 following curve fitting and applying the following equation: Percentageviability = (FITEST-FINegative/FIUNTREATED-FINegative)×100.
(§2) Hemolytic activity was measured against isolated human erythrocytes from anonymously donated fresh human blood. Isolated erythrocytes were adjusted to 1 × 10^9 blood cells mL^−1 in phosphate-buffered saline (PBS, pH 7.4), added to the wells of NUNC polypropylene round-bottom 96-well plates (Sigma-Aldrich, Cat # P6866) then up to 300 μg mL^−1 of compound was added per well and incubated for 3 h at 37 °C. Following incubation, samples were centrifuged at 3000 rpm for 20 min, and the supernatants, 100 μL, were carefully collected for measurement. The degree of hemolysis in the samples was determined by measurement of the absorption of the supernatants at 540 nm using the Polarstar-Omega plate reader. 1% Triton-X100 was used as positive control for inducing 100% hemolysis. HC10 and HC50 values were determined using Prism 8 following curve fitting. The use of human blood (sourced from the Australian Red Cross Blood Service) for hemolysis assays was approved by the University of Queensland Institutional Human Research Ethics Committee, Approval Number 2014000031. All in vitro toxicity assays were performed for two independent biological replicates as an 8-point dose response of 3-fold dilution series in triplicate with the highest test concentration of 300 μg mL^−1.

in vitro = settings: human
Experimental: as §1, §2

[2] = test system: HK-2 human kidney proximal tubule cells; assay: in vitro
Experimental: as §1, §2

[3] = test system: HEK-293 human embryonic kidney cells; assay: in vitro
Experimental: as §1, §2

[4] = test system: human erythrocytes (HRBC); format: cell-based; settings: for Heamolysis HC10: red cells of human, 3 h
P. aeruginosa = assay: microbe, parasite or virus in culture
Experimental: (§3) Antimicrobial activity of arenicin-3 and its analogs was tested against a panel of bacterial and yeast strains by in vitro broth microdilution (BMD) assay with minimum inhibitory concentration (MIC) determination. Strains were purchased from American Type Culture Collection (ATCC) or obtained from clinical collaborators (full strain profiles provided in Supplementary Data 3). All peptides were prepared in Ringer’s acetate solution, and subsequently diluted fresh in water for each independent assay.
(§4) Assays were performed in Mueller Hinton broth (MHB; BD, Cat. No. 211443) for bacteria, and yeast extract-peptone dextrose (YPD; Sigma-Aldrich, Y1500) for yeast. The concentrations of the peptides and comparator antibiotics/antifungals in the assay wells ranged from either 128 or 64 μg mL^−1, to 0.06 or 0.03 μg mL^−1 as a 12-point dose response plated as a 2-fold dilution series across the wells of the plate in duplicate for each independent biological replicate, using a final cell density of 5 × 10^5 CFU mL^−1 and 2.5 × 10^3 CFU mL^−1 for bacteria and yeast respectively. Final assay volumes were 100 μL per well with MICs determined visually following 18-20 h incubation at 37 °C for bacteria, 24 h incubation at 35 °C for Candida albicans, and 24 h incubation at 35 °C with resazurin addition (0.006%; Sigma-Aldrich, Cat # R7017) for a further 3 h for Cryptococcus neoformans, without shaking. Additional bacterial and yeast susceptibility assays were performed in Cation-Adjusted Mueller Hinton Broth (CAMHB; BD, Cat No. 212322) and Roswell Park Memorial Institute (RPMI) 1640 culture medium (Life Technologies Australia, Cat No. 21870092), respectively, as recommended by CLSI guidelines (M07 11th ed[36] and M27 4th ed[37]). […] Agarose MICs were determined in MHB with 1% agarose (Bioline molecular grade; Cat no: BIO-41025; high purity, high gel strength). All experiments were performed a minimum of six replicates (n ≥ 6).

K. pneumoniae = assay: microbe, parasite or virus in culture
Experimental: as §3, §4

E. coli = assay: microbe, parasite or virus in culture
Experimental: as §3, §4

A. baumannii = assay: microbe, parasite or virus in culture
Experimental: as §3, §4

S. aureus = assay: microbe, parasite or virus in culture
Experimental: as §3, §4

C. albicans = assay: microbe, parasite or virus in culture; settings: 24 h
Experimental: as §3, §4

E. coli ATCC 25922 = assay: microbe, parasite or virus in culture; format: cell-based, Escherichia coli; settings: ATCC 25922
Experimental: Assays were performed in Mueller Hinton broth (MHB; BD, Cat. No. 211443) for bacteria, and yeast extract-peptone dextrose (YPD; Sigma-Aldrich, Y1500) for yeast. The concentrations of the peptides and comparator antibiotics/antifungals in the assay wells ranged from either 128 or 64 μg mL^−1, to 0.06 or 0.03 μg mL^−1 as a 12-point dose response plated as a 2-fold dilution series across the wells of the plate in duplicate for each independent biological replicate, using a final cell density of 5 × 10^5 CFU mL^−1 and 2.5 × 10^3 CFU mL^−1 for bacteria and yeast respectively. Final assay volumes were 100 μL per well with MICs determined visually following 18-20 h incubation at 37 °C for bacteria, 24 h incubation at 35 °C for Candida albicans, and 24 h incubation at 35 °C with resazurin addition (0.006%; Sigma-Aldrich, Cat # R7017) for a further 3 h for Cryptococcus neoformans, without shaking. Additional bacterial and yeast susceptibility assays were performed in Cation-Adjusted Mueller Hinton Broth (CAMHB; BD, Cat No. 212322) and Roswell Park Memorial Institute (RPMI) 1640 culture medium (Life Technologies Australia, Cat No. 21870092), respectively, as recommended by CLSI guidelines (M07 11th ed[36] and M27 4th ed[37]). […] However, for yeast it was determined that the YPD media was more reliable and robust between repeats and therefore MICs in this media are reported. […] Agarose MICs were determined in MHB with 1% agarose (Bioline molecular grade; Cat no: BIO-41025; high purity, high gel strength). All experiments were performed a minimum of six replicates (n ≥ 6).

SMILES	CC50 HepG2, Mean [1]	CC50 at 24 h (in vitro; HEK-293 cells)	CC50 at 24 h (in vitro; HK-2 cells)	CC50 at 24 h (in vitro; HepG2 cells)	CC50 HK2, Mean [2]	CC50 HEK293, Mean [3]	Heamolysis HC10, Mean [4]	BMD MIC (P. aeruginosa)	BMD MIC (K. pneumoniae)	BMD MIC (E. coli)	BMD MIC (A. baumannii)	BMD MIC (S. aureus)	BMD MIC (C. albicans)	MIC, MHB (E. coli ATCC 25922)	CC50 HepG2 [1]	CC50 HK2 [2]	CC50 HEK293 [3]	Heamolysis HC10 [4]
CC(C)C[C@@H]1NC(=O)CNC(=O)[C@H](CC(N)=O)NC(=O)[C@H](CCCNC(=N)N)NC(=O)[C@H](CO)NC(=O)[C@H](C)NC(=O)[C@@H]2CSSC[C@H](NC(=O)[C@H](C(C)C)NC(=O)[C@H](CCCNC(=N)N)NC1=O)C(=O)N[C@@H](Cc1ccc(O)cc1)C(=O)N[C@@H](CCCNC(=N)N)C(=O)N[C@@H](CCCNC(=N)N)C(=O)N[C@H](C(=O)N[C@@H](CC(N)=O)C(=O)O)CSSC[C@H](NC(=O)[C@H](Cc1ccccc1)NC(=O)CN)C(=O)N[C@@H](Cc1c[nH]c3ccccc13)C(=O)N[C@@H](CCCNC(=N)N)C(=O)N[C@@H](C(C)C)C(=O)N2 [NZ17125] (HELM PEPTIDE1{G.F.C.W.R.V.C.A.S.R.N.G.L.R.V.C.Y.R.R.C.N}$PEPTIDE1,PEPTIDE1,3:R3-20:R3|PEPTIDE1,PEPTIDE1,7:R3-16:R3$$$V2.0)	299 µg/mL (≈ 119 µM)	250 µg/mL (≈ 99.4 µM)	110 µg/mL (≈ 43.7 µM)	299 µg/mL (≈ 119 µM)	110 µg/mL (≈ 43.7 µM)	250 µg/mL (≈ 99.4 µM)	181 µg/mL	0.25 µg/mL	0.25 µg/mL	0.125 µg/mL	1 µg/mL	64 µg/mL	64 µg/mL	0.125 µg/mL (≈ 0.0497 µM)				
CC(C)[C@@H]1NC(=O)CNC(=O)[C@H](CC(N)=O)NC(=O)[C@H](CCCNC(=N)N)NC(=O)[C@H](CCCCN)NC(=O)[C@H](C(C)C)NC(=O)[C@@H]2CSSC[C@H](NC(=O)[C@H](CO)NC(=O)[C@H](CCCNC(=N)N)NC1=O)C(=O)N[C@@H](Cc1ccc(O)cc1)C(=O)N[C@@H](CCCNC(=N)N)C(=O)N[C@@H](CCCNC(=N)N)C(=O)N[C@H](C(=O)N[C@@H](CC(N)=O)C(=O)O)CSSC[C@H](NC(=O)[C@H](Cc1ccccc1)NC(=O)CN)C(=O)N[C@@H](Cc1c[nH]c3ccccc13)C(=O)N[C@@H](Cc1ccc(O)cc1)C(=O)N[C@@H](C(C)C)C(=O)N2 [NZ17160] (HELM PEPTIDE1{G.F.C.W.Y.V.C.V.K.R.N.G.V.R.S.C.Y.R.R.C.N}$PEPTIDE1,PEPTIDE1,3:R3-20:R3|PEPTIDE1,PEPTIDE1,7:R3-16:R3$$$V2.0)	>300 µg/mL	> 300 µg/mL	> 250 µg/mL	> 300 µg/mL	>250 µg/mL	>300 µg/mL	>300 µg/mL	0.5 µg/mL	0.25 µg/mL	0.125 µg/mL	1 µg/mL	>64 µg/mL	64 µg/mL	0.125 µg/mL (≈ 0.0487 µM)	>300 µg/mL	>257 µg/mL	>300 µg/mL	>300 µg/mL
CC(C)[C@@H]1NC(=O)CNC(=O)[C@H](CC(N)=O)NC(=O)[C@H](CCCNC(=N)N)NC(=O)[C@H](CCCNC(=N)N)NC(=O)[C@H](C)NC(=O)[C@@H]2CSSC[C@H](NC(=O)[C@H](C(C)C)NC(=O)[C@H](CCCNC(=N)N)NC1=O)C(=O)N[C@@H](Cc1ccc(O)cc1)C(=O)N[C@@H](CCCNC(=N)N)C(=O)N[C@@H](CCCNC(=N)N)C(=O)N[C@H](C(=O)N[C@@H](CC(N)=O)C(=O)O)CSSC[C@H](NC(=O)[C@H](Cc1ccccc1)NC(=O)CN)C(=O)N[C@@H](Cc1c[nH]c3ccccc13)C(=O)N[C@@H](Cc1c[nH]cn1)C(=O)N[C@@H](C(C)C)C(=O)N2 [NZ17224] (HELM PEPTIDE1{G.F.C.W.H.V.C.A.R.R.N.G.V.R.V.C.Y.R.R.C.N}$PEPTIDE1,PEPTIDE1,3:R3-20:R3|PEPTIDE1,PEPTIDE1,7:R3-16:R3$$$V2.0)	>300 µg/mL	> 300 µg/mL	> 250 µg/mL	> 300 µg/mL	>250 µg/mL	>300 µg/mL	>300 µg/mL	0.25 µg/mL	0.25 µg/mL	0.06 µg/mL	0.5 µg/mL	64 µg/mL	32 µg/mL	0.06 µg/mL (≈ 0.0235 µM)	>300 µg/mL	>255 µg/mL	>300 µg/mL	>300 µg/mL
